According to US8093028B2, “Engineered glycosyltransferases with expanded substrate specificity” (Wisconsin Alumni Research Foundation, priority 2007, dated 2012):
In brackets after ≈: the same amount, converted by molar mass. Read-outs that look alike come from different tables or passages of the source.

Legend:
[1] = Solubility limit of acceptors; assay type: physicochemical
[2] = target: T1, OleD P67T/S132F/A242V (Streptomyces antibioticus, UniProt Q53685, A242V/P67T/S132F); test: Rate of glucoside formation with acceptors (RP-HPLC); assay type: biochemical; conditions: for Rate of glucoside formation, P67T/S132F/A242V: 200 μM acceptor, 1 mM UDPG
T1 construct: made in house; host or cells: E. coli (site-directed mutant of pET28/OleD)
Description: Enzyme assays for the determination of glycosyl transfer rate to FIG. 1: 4, Table 1: 27-32 were carried out in a total volume of 500 μl 50 mM Tris-HCl (pH8.0) containing 5 mM MgCl2, 200 μM acceptor, 1 mM UDPG, and 50 μg pure enzyme. Aliquots (100 μl) were removed between 0 and 30 min, at which time product formation was still linear with respect to time, and quenched with 90 μl of an 8:1 mixture of ice-cold MeOH/HCl, and centrifuged at 14,000 rpm for 10 min. Supernatants were analyzed by analytical reverse-phase HPLC with a 250 mm×4.6 mm Gemini […] C18 column (Phenomenex, Torrance, Calif.) using a gradient of 10-90% CH3CN in 0.1% trifluoroacetic acid (TFA)/H2O in 20 min at 1 ml/min, with detection at 254 nm. HPLC peak areas were integrated, and the product concentration calculated as a percent of the total peak area. Product identity was confirmed by co-elution with a commercial standard when available and, in all cases, by LC-MS (FIG. 8). […]
(§1) Enzyme reactions were carried out in a total volume of 500 μl 50 mM Tris-HCl (pH8.0) containing 5 mM MgCl2, 200 μM acceptor, 1 mM UDPG, and 50 μg pure enzyme. Aliquots (100 μl) were removed between 0 and 30 min, and quenched with 90 μl of an 8:1 mixture of ice-cold MeOH/HCl for activity towards FIG. 1: 4, Table 1: 27-32, or with 90 μl of ice-cold MeOH for activity towards FIG. 1: 1, and the samples centrifuged at 14,000 rpm for 10 min.
(§2) For determination of activity to FIG. 1: 4, Table 1: 27-32, supernatants were analyzed by analytical reverse-phase HPLC with a Gemini 5μ C18 column (Phenomenex) using a gradient of 10-90% CH3CN in 0.1% trifluoroacetic acid (TFA)/H2O in 20 min, with detection at 254 nm. HPLC peak areas were integrated, and the product concentration calculated as a percent of the total peak area. All products were characterized by LC-MS. Mass spectra were obtained using electrospray ionization on an Agilent 1100 HPLC-MSD SL quadrapole mass spectrometer connected to a UV/Vis diode array detector. For LC-MS analysis, quenched reaction mixtures (see below) were analyzed by analytical reverse-phase HPLC with a 250 mm×4.6 mm Gemini 5μ C18 column (Phenomenex, Torrance, Calif.) using a gradient of 10-90% CH3CN in 0.1% formic acid/H2O in 20 min at 1 ml/min, with detection at 254 nm.
(§3) For determination of activity toward FIG. 1: 1, centrifuged reaction mixtures were analyzed by analytical reverse-phase HPLC with a Gemini 5μ C18 column (Phenomenex) using a gradient of 0-90% CH3CN in 50 mM NH3COOH over 30 min at 1 ml/min. Compounds FIG. 1: 1 and 3 were detected by evaporative light scattering detection (ELSD) using a drift tube temperature of 105° C. and a nitrogen flow of 2.5 ml/min. All products were characterized by APCI LC-MS on an Agilent 1100 Series LC/MSD quadrapole mass spectrometer connected to a UV detector. Quenched reaction mixtures were analyzed by reverse-phase HPLC with a 10 mm×4.6 mm Zorbax Extend 5μ C18 Analytical Guard Column (Agilent Technologies) using an isocratic gradient of 80% MeOH in 2 min at 1 ml/min, with detection at 254 nm.

[3] = target: T2, OleD S132F (Streptomyces antibioticus, UniProt Q53685, P55A/R82V/R83E/S132F/T84P); test: as above; assay type: biochemical; conditions: 200 μM acceptor, 1 mM UDPG
T2 construct: made in house; host or cells: E. coli (site-directed mutant of pET28/OleD)
Description: (§4) Enzyme assays for the determination of glycosyl transfer rate to FIG. 1: 4, Table 1: 27-32 were carried out in a total volume of 500 μl 50 mM Tris-HCl (pH8.0) containing 5 mM MgCl2, 200 μM acceptor, 1 mM UDPG, and 50 μg pure enzyme. Aliquots (100 μl) were removed between 0 and 30 min, at which time product formation was still linear with respect to time, and quenched with 90 μl of an 8:1 mixture of ice-cold MeOH/HCl, and centrifuged at 14,000 rpm for 10 min. Supernatants were analyzed by analytical reverse-phase HPLC with a 250 mm×4.6 mm Gemini […] C18 column (Phenomenex, Torrance, Calif.) using a gradient of 10-90% CH3CN in 0.1% trifluoroacetic acid (TFA)/H2O in 20 min at 1 ml/min, with detection at 254 nm. HPLC peak areas were integrated, and the product concentration calculated as a percent of the total peak area. Product identity was confirmed by co-elution with a commercial standard when available and, in all cases, by LC-MS (FIG. 8).
(§5) Reaction conditions for assay of macrolide glycosylation were identical to that for FIG. 1: 1, except that typically, less enzyme was used (1-10 μg) and reactions were quenched with an equal volume of ice-cold MeOH. Centrifuged reaction mixtures were analyzed by analytical reverse-phase HPLC with a Gemini 5μ C18 column (Phenomenex) using a gradient of 0-90% CH3CN in 50 mM NH3COOH over 30 min at 1 ml/min. Products and acceptor macrolide were detected by evaporative light scattering detection (ELSD) using a drift tube temperature of 105° C. and a nitrogen flow of 2.5 ml/min. All products were characterized by APCI LC-MS on an Agilent 1100 Series LC/MSD quadrapole mass spectrometer connected to a UV detector. Quenched reaction mixtures were analyzed by reverse-phase HPLC with a 10 mm×4.6 mm Zorbax Extend 5μ C18 Analytical Guard Column (Agilent Technologies) using an isocratic gradient of 80% MeOH in 2 min at 1 ml/min, with detection at 254 nm.
as §1, §2, §3

[4] = target: T3, WT OleD (Streptomyces antibioticus, UniProt Q53685, P55A/R82V/R83E/T84P); test: as above; assay type: biochemical; conditions: 200 μM acceptor, 1 mM UDPG
T3 construct: made in house; host or cells: E. coli BL21(DE3)pLysS, plasmid pET28/OleD
Description: as §4, §5, §1, §2, §3

[5] = target: T4, OleD P67T (Streptomyces antibioticus, UniProt Q53685, P55A/P67T/R82V/R83E/T84P); test: as above; assay type: biochemical; conditions: 200 μM acceptor, 1 mM UDPG
T4 construct: made in house; host or cells: E. coli (site-directed mutant of pET28/OleD)
Description: as §4, §5, §1, §2, §3

[6] = target: T5, OleD A242V (Streptomyces antibioticus, UniProt Q53685, A242V/P55A/R82V/R83E/T84P); test: as above; assay type: biochemical; conditions: 200 μM acceptor, 1 mM UDPG
T5 construct: made in house; host or cells: E. coli BL21(DE3)pLysS (error-prone PCR clone in pET28a)
Description: as §4, §5, §1, §2, §3

SMILES | solubility ([1]; aqueous with cosolvent or surfactant or cyclodextrin, in water/DMSO, read-out: solubility limit) [mM] | solubility ([1]; enzyme assay buffer (50 mM Tris-HCl with 5 mM MgCl2), pH 8, limited solubility in assay, read-out: solubility) [mM] | Rate of glucoside formation, P67T/S132F/A242V [2] | specific activity, fold higher than WT OleD ([2]; 4 and 2 as acceptor/donor) [fold] | Fold-improvement compared to WT OleD ([2]; rate of P67T/S132F/A242V versus WT, UDPG donor) [fold] | Rate of glucoside formation, S132F [3] | Rate of glucoside formation, WT [4] | Rate of glucoside formation, P67T [5] | Rate of glucoside formation, A242V [6] | solubility ([1]; in kinetic assay, read-out: solubility limit) [mM]
Cc1cc(=O)oc2cc(O)ccc12 [4-Me-umb (4), 7-hydroxy-4-methylcoumarin] | 10 (≈ 1760 µg/mL) | < 4 | 84 mmols/product formed/min/μg enzyme × 10^3 | ~30 | 33 | 6.3 mmols/product formed/min/μg enzyme × 10^3 | 2.5 mmols/product formed/min/μg enzyme × 10^3 | 15.7 mmols/product formed/min/μg enzyme × 10^3 | 5.4 mmols/product formed/min/μg enzyme × 10^3 | 
CC(C)=CCc1cc(C(=O)Nc2c(O)c3ccc(O)c(C)c3oc2=O)ccc1O [novobiocic acid (29), novobiocic acid] |  |  | 1.14 mmols/product formed/min/μg enzyme × 10^3 |  |  | 0.49 mmols/product formed/min/μg enzyme × 10^3 | 0.24 mmols/product formed/min/μg enzyme × 10^3 | 0.65 mmols/product formed/min/μg enzyme × 10^3 | 0.33 mmols/product formed/min/μg enzyme × 10^3 | 5 (≈ 1980 µg/mL)
